Experimental data: patent publication US10376504B2, “Substituted quinolinones as PDE9 inhibitors” (Merck Sharp & Dohme Corp., priority 2015, dated 2019)

What follows are compounds tested against human PDE9 (PDE9A2) (Homo sapiens (Human), UniProt O76083) (assay: PDE9 IMAP fluorescence polarization (FP) inhibition assay). Details: FAM-cGMP substrate 50 nM, room temperature.
Format: biochemical
Description: The activity of the compounds in accordance with the present invention as PDE9 inhibitors may be readily determined without undue experimentation using a fluorescence polarization (FP) methodology that is well known in the art (Huang, W., et al., J. Biomol Screen, 2002, 7: 215).
In a typical experiment the PDE9 inhibitory activity of the compounds of the present invention was determined in accordance with the following experimental method. Rhesus PDE9A2 was amplified from rhesus whole brain cDNA (Biochain Institute) essentially as described in Hutson, et al. Neuropharmacology (2011) 61(4):665-676. HEK 293 or CHO cells over-expressing rhesus or rat PDE9A2 (created by DiscoverX from mRNA Genbank accession # NM_138543) respectively were lysed in 20 mM HEPES, 1 mM EDTA buffer with protease inhibitors (Roche, Indianapolis, Ind.). After brief homogenization, cells were pelleted via centrifugation at 75,000×g for 20 min at 4° C. The pellets were re-suspended, centrifuged and re-pelleted again in the same manner. The membrane fraction was collected in 20 mM HEPES, 1 mM MgCl2 with protease inhibitors. Human PDE9 (PDE9A2, GenBank Accession No. NM_001001567), full length with N-terminal GST tag, was purchased from BPS Bioscience. The fluorescence polarization assay for cyclic nucleotide phosphodiesterases was performed using an IMAP® FP kit supplied by Molecular Devices, Sunnyvale, Calif. (product # R8139). IMAP® technology has been applied previously to phosphodiesterase assays (Huang, W., et al., J. Biomol Screen, 2002, 7: 215). Assays were performed at room temperature in 384-well microtiter plates with an incubation volume of 20.2 μL. Solutions of test compounds were prepared in DMSO and serially diluted with DMSO to yield 8 μL of each of 10 solutions differing by 3-fold in concentration, at 32 serial dilutions per plate. 100% inhibition is determined using a known PDE9 inhibitor, such as 1-(2-chlorophenyl)-6-[(2R)-3,3,3-trifluoro-2-methylpropyl]-1,5-dihydro-4H-pyrazolo[3,4-d]pyrimidine-4-one (BAY 73-6691) (Wunder et al, Mol. Pharmacol., 2005, 68(6): 1775-81), (6-[(3S,4S)-4-methyl-1-(pyrimidin-2-ylmethyl)pyrrolidin-3-yl]-1-(tetrahydro-2H-pyran-4-yl)-1,5-dihydro-4H-pyrazolo[3,4-d]pyrimidin-4-one (PF-04447943) (Wager et al., ACS Chemical Neuroscience, 2010, 1:435-449). 0% of inhibition is determined by using DMSO (1% final concentrations). A Labcyte Echo 555 (Labcyte, Sunnyvale, Calif.) is used to dispense 200 nL from each well of the titration plate to the 384 well assay plate. Rhesus membrane preps were diluted to 4 ng/ml, rat membrane preps diluted to 13 ng/ml, and human PDE9A2 diluted to 1 ng/ml. FAM-labeled cGMP substrate (Molecular Devices, Sunnyvale, Calif.) was at a concentration of 100 nM (Km of PDE9 for cGMP is 70-170 nM) in the assay buffer (10 mM Tris HCl, pH 7.2, 10 mM MgCl2, 0.05% NaN3 0.01% Tween-20, and 1 mM DTT). PDE9 enzyme mix and compounds were mixed and incubated at room temperature for 30 min. Following which, FAMcGMP substrate was added, shaken and incubated for an additional 60 min at room temperature. The final concentrations of rhesus and rat membrane preparations were 2 ng/ml and 6.5 ng/ml, respectively, while the human PDE9 was used at a final concentration of 0.5 ng/ml. The final concentration of FAM-cGMP was 50 nM. After the incubation period, the enzymatic reaction was stopped by addition of binding solution (IMAP-FP, Molecular Devices, comprised of 80% Solution A, 20% Solution B and a 1:600 dilution of binding reagent) to each well. The plates were shaken then incubated at room temperature for 1 h prior to determining the fluorescence polarization (mP) using a Perkin Elmer EnVision™ plate reader (Waltham, Mass.).
Fluorescence polarization (mP) was calculated from the parallel (S) and perpendicular (P) fluorescence of each sample well and the analogous values for the median control well, containing only substrate (So and Po), using the following equation: Polarization(mP)=1000*(S/So−P/Po)/(S/So+P/Po). […]

Chain of human PDE9 (PDE9A2) (O76083 other isoform, or with tags, fused parts or gaps): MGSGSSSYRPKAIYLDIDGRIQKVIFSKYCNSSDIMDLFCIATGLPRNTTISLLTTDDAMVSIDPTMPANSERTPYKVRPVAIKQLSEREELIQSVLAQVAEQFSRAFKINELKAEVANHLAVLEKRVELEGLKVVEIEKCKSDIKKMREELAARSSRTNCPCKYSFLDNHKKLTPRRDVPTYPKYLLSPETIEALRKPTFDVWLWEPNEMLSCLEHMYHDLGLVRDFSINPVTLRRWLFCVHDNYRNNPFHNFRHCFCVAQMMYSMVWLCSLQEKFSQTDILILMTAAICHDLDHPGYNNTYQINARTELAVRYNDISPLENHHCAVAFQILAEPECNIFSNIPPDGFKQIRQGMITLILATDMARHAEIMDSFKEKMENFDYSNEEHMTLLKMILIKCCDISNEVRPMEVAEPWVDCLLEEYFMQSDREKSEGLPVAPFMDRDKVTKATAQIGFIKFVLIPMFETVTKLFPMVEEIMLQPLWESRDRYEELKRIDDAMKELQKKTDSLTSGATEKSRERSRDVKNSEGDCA

SMILES | Ki
N#Cc1c(N2CC[C@@H](n3cccn3)C2)c2ccccc2[nH]c1=O [Example 1-7, (R)-4-(3-[1H-pyrazol-1-yl]pyrrolidin-1-yl)-2-oxo-1,2-dihydroquinoline-3-carbonitrile] | 0.0075 µM
N#Cc1c(N2CCCCCC2)c2ccccc2[nH]c1=O [Example 1-8, 4-(azepan-1-yl)-2-oxo-1,2-dihydroquinoline-3-carbonitrile] | 0.018 µM
N#Cc1c(N2CCC2)c2ccccc2[nH]c1=O [Example 1-9, 4-(azetidin-1-yl)-2-oxo-1,2-dihydroquinoline-3-carbonitrile] | 5.55 µM
CCN(CC)c1c(C#N)c(=O)[nH]c2ccccc12 [Example 1-10, 4-(diethylamino)-2-oxo-1,2-dihydroquinoline-3-carbonitrile] | 0.0889 µM
CC1(C)CCN(c2c(C#N)c(=O)[nH]c3ccccc23)CC1 [Example 1-11, 4-(4,4-dimethylpiperidin-1-yl)-2-oxo-1,2-dihydroquinoline-3-carbonitrile] | 0.0263 µM
N#Cc1c(NCCC2COC2)c2ccccc2[nH]c1=O [Example 1-12, 4-((2-(oxetan-3-yl)ethyl)amino)-2-oxo-1,2-dihydroquinoline-3-carbonitrile] | 0.0711 µM
